Test results from ChEMBL document CHEMBL5370580, “Discovery of three-dimensional bicyclo[3.3.1]nonanols as novel heat shock protein 90 inhibitors” (Bioorg Med Chem, 2023).
Activity calls are given as the source filed them. The calls are words filed in the database; no cut-off is given here.

Experiments:
[1] = Inhibition of HIF-1 mediated gene transcription activity in human HeLa cells co-expressing HRE dependent firefly luciferase reporter gene pre-incubated for 1 hrs followed by incubation at hypoxic condition for 12 hrs by luciferase reporter gene assay; format: cell-based
[2] = system: HeLa; test: Anticancer activity against human HeLa cells assessed as cell growth inhibition measured after 72 hrs by MTT assay; format: functional, cell-based
[3] = system: HeLa; test: Effect on CA9 mRNA expression in human HeLa cells at 100 uM pre-incubated for 1 hr followed by incubation at hypoxic condition for 12 hrs by RT-PCR assay; format: functional, cell-based; conditions: time 13.0 hrs
[4] = biological target: T1, Heat shock factor protein 1 (Homo sapiens) (UniProt Q00613); test: Activation of HSF1 in human HeLa cells assessed as increase in HSP47 mRNA expression at 100 uM measured after 12 hrs by Real-time PCR assay; format: cell-based
T1 sequence (whole entry): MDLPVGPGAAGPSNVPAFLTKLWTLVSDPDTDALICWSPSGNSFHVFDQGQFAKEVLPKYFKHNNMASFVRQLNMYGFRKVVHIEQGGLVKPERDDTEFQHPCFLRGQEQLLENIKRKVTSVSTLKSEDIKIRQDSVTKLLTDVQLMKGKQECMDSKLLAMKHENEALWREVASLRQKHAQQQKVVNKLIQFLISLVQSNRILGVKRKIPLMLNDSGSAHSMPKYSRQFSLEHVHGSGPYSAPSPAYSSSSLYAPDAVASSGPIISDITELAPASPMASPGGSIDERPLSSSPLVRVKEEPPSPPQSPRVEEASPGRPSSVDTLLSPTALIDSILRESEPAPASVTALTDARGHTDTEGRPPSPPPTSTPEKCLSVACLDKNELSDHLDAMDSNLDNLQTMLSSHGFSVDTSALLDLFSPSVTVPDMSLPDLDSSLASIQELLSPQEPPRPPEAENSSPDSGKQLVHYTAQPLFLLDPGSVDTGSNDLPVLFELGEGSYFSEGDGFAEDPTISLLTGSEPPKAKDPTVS

[5] = biological target: Hypoxia-inducible factor 1-alpha (Homo sapiens) (UniProt Q16665); test: Induction of HIF-1alpha degradation in human HeLa cells assessed as reduction in CA9 protein expression upto 100 uM incubated for 12 hrs under hypoxia condition by Western blot analysis; format: cell-based
[6] = biological target: T2, Heat shock protein HSP90 (Homo sapiens, UniProt P07900+P08238); test: Inhibition of HSP90 in human HeLa cells assessed as reduction in ERK phosphorylation at 30 to 100 uM measured after 12 hrs by Western blot analysis; format: cell-based; conditions: dose 30-100 µM
[7] = biological target: T2, Heat shock protein HSP90; test: Inhibition of HSP90 in human HeLa cells assessed as reduction in p70s6k phosphorylation at 30 to 100 uM measured after 12 hrs by Western blot analysis; format: cell-based; conditions: dose 30-100 µM
[8] = Effect on HSP70 protein expression in human HeLa cells assessed as fold change at 100 uM measured after 24 hrs by immunoblotting analysis (reference value: 1); format: functional
[9] = biological target: T2, Heat shock protein HSP90; test: Inhibition of recombinant human HSP90 ATPase activity expressed in Escherichia coli BL21 incubated for 3 hrs in presence of ATP by malachite green dye based microplate reader analysis
[10] = biological target: Hypoxia-inducible factor 1-alpha (Homo sapiens) (UniProt Q16665); test: Induction of HIF-1alpha degradation in human HeLa cells assessed as reduction in HIF-1alpha accumulation upto 100 uM incubated for 12 hrs under hypoxia condition by Western blot analysis; format: cell-based
[11] = biological target: T2, Heat shock protein HSP90; test: Inhibition of HSP90 in human HeLa cells assessed as reduction in AKT phosphorylation at 30 to 100 uM measured after 12 hrs by Western blot analysis; format: cell-based; conditions: dose 30-100 µM
[12] = Effect on CDK4 protein expression in human HeLa cells assessed as fold change at 100 uM measured after 24 hrs by immunoblotting analysis (reference value: 1); format: functional
[13] = system: HeLa; test: Effect on HIF-1alpha mRNA expression in human HeLa cells at 1 to 100 uM pre-incubated for 1 hr followed by incubation at hypoxic condition for 12 hrs by semi-quantitative RT-PCR assay; format: functional, cell-based; conditions: dose 1-100 µM, time 13.0 hrs
[14] = biological target: T2, Heat shock protein HSP90; test: Inhibition of HSP90 in human HeLa cells assessed as reduction in CDK4 protein expression at 30 to 100 uM measured after 24 hrs by Western blot analysis; format: cell-based; conditions: dose 30-100 µM
[15] = system: HeLa; test: Effect on HSP90 protein expression in human HeLa cells at 30 to 100 uM measured after 24 hrs by Western blot analysis; format: functional, cell-based; conditions: dose 30-100 µM
[16] = biological target: T1, Heat shock factor protein 1 (Homo sapiens); test: Activation of HSF1 in human HeLa cells assessed as increase in HSP70 mRNA expression at 100 uM measured after 12 hrs by Real-time PCR assay; format: cell-based
[17] = biological target: T2, Heat shock protein HSP90; test: Inhibition of recombinant human HSP90 expressed in Escherichia coli BL21 assessed as increase in DTT induced insulin aggregation by measuring increase in absorbance at 100 uM pre-incubated for 1 hrs followed by DTT addition by microplate reader analysis
[18] = Effect on HSP90 protein expression in human HeLa cells assessed as fold change at 100 uM measured after 24 hrs by immunoblotting analysis (reference value: 1); format: functional
[19] = biological target: T1, Heat shock factor protein 1 (Homo sapiens); test: Activation of HSF1 in human HeLa cells assessed as increase in HSP27 mRNA expression at 100 uM measured after 12 hrs by Real-time PCR assay; format: cell-based
[20] = Effect on HSF1 protein expression in human HeLa cells assessed as fold change at 100 uM measured after 24 hrs by immunoblotting analysis (reference value: 1); format: functional
[21] = Inhibition of recombinant luciferase (unknown origin) incubated for 10 mins by luminescence based microplate reader analysis
[22] = system: HeLa; test: Effect on CA9 mRNA expression in human HeLa cells at 1 to 100 uM pre-incubated for 1 hr followed by incubation at hypoxic condition for 12 hrs by semi-quantitative RT-PCR assay; format: functional, cell-based; conditions: dose 1-100 µM, time 13.0 hrs
[23] = system: HeLa; test: Effect on HSP70 protein expression in human HeLa cells at 30 to 100 uM measured after 24 hrs by Western blot analysis; format: functional, cell-based; conditions: dose 30-100 µM
[24] = system: HeLa; test: Effect on HIF-1alpha mRNA expression in human HeLa cells at 100 uM pre-incubated for 1 hr followed by incubation at hypoxic condition for 12 hrs by RT-PCR assay; format: functional, cell-based; conditions: time 13.0 hrs
[25] = Downregulation of p-AKT protein expression in human Hela cells assessed as fold change at 10 uM measured after 24 hrs by immunoblotting analysis (reference value: 1); format: functional
[26] = biological target: T1, Heat shock factor protein 1 (Homo sapiens); test: Activation of HSF1 in human HeLa cells assessed as increase in HSP70 mRNA expression at 10 uM measured after 12 hrs by Real-time PCR assay; format: cell-based; conditions: filed as activator
[27] = Effect on HSF1 protein expression in human HeLa cells assessed as fold change at 10 uM measured after 24 hrs by immunoblotting analysis (reference value: 1); format: functional
[28] = biological target: T1, Heat shock factor protein 1 (Homo sapiens); test: Activation of HSF1 in human HeLa cells assessed as increase in HSP27 mRNA expression at 10 uM measured after 12 hrs by Real-time PCR assay; format: cell-based; conditions: filed as activator
[29] = Effect on HSP90 protein expression in human HeLa cells assessed as fold change at 10 uM measured after 24 hrs by immunoblotting analysis (reference value: 1); format: functional
[30] = Downregulation of CDK4 protein expression in human Hela cells assessed as fold change at 10 uM measured after 24 hrs by immunoblotting analysis (reference value: 1); format: functional
[31] = biological target: T1, Heat shock factor protein 1 (Homo sapiens); test: Activation of HSF1 in human HeLa cells assessed as increase in HSP47 mRNA expression at 10 uM measured after 12 hrs by Real-time PCR assay; format: cell-based; conditions: filed as activator
[32] = Effect on HSP70 protein expression in human HeLa cells assessed as fold change at 10 uM measured after 24 hrs by immunoblotting analysis (reference value: 1); format: functional
[33] = Downregulation of p-AKT protein expression in human Hela cells assessed as fold change at 100 uM measured after 24 hrs by immunoblotting analysis (reference value: 1); format: functional

Chain of Hypoxia-inducible factor 1-alpha (Homo sapiens) (Q16665 whole entry, looked up): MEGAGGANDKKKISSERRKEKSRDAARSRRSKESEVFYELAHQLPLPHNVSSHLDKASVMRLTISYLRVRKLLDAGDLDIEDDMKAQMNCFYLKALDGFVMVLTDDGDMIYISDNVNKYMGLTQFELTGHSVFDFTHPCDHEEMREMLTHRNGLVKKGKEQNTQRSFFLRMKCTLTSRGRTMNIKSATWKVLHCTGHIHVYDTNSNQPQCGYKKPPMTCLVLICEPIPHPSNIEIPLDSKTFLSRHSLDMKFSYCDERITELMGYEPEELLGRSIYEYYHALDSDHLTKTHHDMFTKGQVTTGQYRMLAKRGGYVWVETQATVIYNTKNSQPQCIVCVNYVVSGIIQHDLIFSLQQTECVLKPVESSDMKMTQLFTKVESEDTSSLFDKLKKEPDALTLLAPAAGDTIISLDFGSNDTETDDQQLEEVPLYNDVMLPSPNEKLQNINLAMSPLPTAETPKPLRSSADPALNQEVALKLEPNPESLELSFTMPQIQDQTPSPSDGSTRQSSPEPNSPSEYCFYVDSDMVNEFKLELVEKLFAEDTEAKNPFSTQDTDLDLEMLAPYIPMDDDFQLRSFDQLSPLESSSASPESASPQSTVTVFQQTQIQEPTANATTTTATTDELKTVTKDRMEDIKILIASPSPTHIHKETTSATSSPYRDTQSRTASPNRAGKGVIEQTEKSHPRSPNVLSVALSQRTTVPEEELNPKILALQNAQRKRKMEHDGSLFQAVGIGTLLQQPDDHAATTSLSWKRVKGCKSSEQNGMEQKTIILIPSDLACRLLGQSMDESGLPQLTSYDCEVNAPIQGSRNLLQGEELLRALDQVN

IC50 [1]	IC50 [2]	Activity [4]	Activity [5]	inhibition [6]	inhibition [7]	Activity [10]	inhibition [11]	inhibition [14]	Activity [16]	inhibition [17]	Activity [19]	inhibition [21]	Compound	Activity [3]	fold change (FC) [8]	fold change (FC) [12]	Activity [13]	Activity [15]	fold change (FC) [18]	fold change (FC) [20]	also measured
> 100 µM	> 100 µM												COC(=O)C1=C(O)[C@H](C(=O)OC)[C@@]2(O)[C@H](C(=O)OC)[C@H](C)C[C@H]1[C@@H]2C(=O)O								
36.3 µM	18.6 µM	inactive	Active	Active	Active	Active	Active	Active	inactive	inactive	inactive	Active	CCCC[C@@H]1C[C@@H]2C(C(=O)OCC(C)C)=C(O)[C@H](C(=O)OCC(C)C)[C@@](O)([C@@H]1C(=O)OCC(C)C)[C@H]2C(=O)O	Active	0.97	0.52	inactive	inactive	0.95	0.9	IC50 [9]: 45.8 µM; Activity [22]: Active; Activity [23]: inactive; Activity [24]: inactive
> 100 µM	22.6 µM												CCCC[C@@H]1C[C@@H]2C(C(=O)OCC(C)C)=C(O)[C@H](C(=O)OC)[C@@](O)([C@@H]1C(=O)OCC(C)C)[C@H]2C(=O)O								
> 100 µM	72.7 µM												CCCC[C@@H]1C[C@@H]2C(C(=O)OCC(C)C)=C(O)[C@H](C(=O)OCC(C)C)[C@@](O)([C@@H]1C(=O)OCC(C)C)[C@H]2C(=O)OCC(C)C								
> 100 µM	44.8 µM												CCCC[C@@H]1C[C@@H]2C(C(=O)OC)=C(O)[C@H](C(=O)OC)[C@@](O)([C@@H]1C(=O)OC)[C@H]2C(=O)O								
													COC1=C2C[C@@H](C)C[C@H](OC)[C@H](O)[C@@H](C)/C=C(\C)[C@H](OC(N)=O)[C@@H](OC)/C=C\C=C(/C)C(=O)NC(=CC1=O)C2=O [GELDANAMYCIN]								fold change (FC) [25]: 0.7; Activity [26]: Active; fold change (FC) [27]: 1.06; Activity [28]: Active; fold change (FC) [29]: 0.93; fold change (FC) [30]: 0.71; Activity [31]: Active; fold change (FC) [32]: 1.96
70.4 µM	40.1 µM	inactive	Active	Active	Active	Active	Active	Active	inactive	inactive	inactive	Active	CCCC[C@@H]1C[C@@H]2C(C(=O)OCC(C)C)=C(O)[C@H](C(=O)OC)[C@@](O)([C@@H]1C(=O)OC)[C@H]2C(=O)O	Active	0.95	0.78	inactive	inactive	0.97	1.02	fold change (FC) [33]: 0.82; Activity [22]: Active; Activity [23]: inactive; Activity [24]: inactive
50.6 µM	18.8 µM	inactive	Active	Active	Active	Active	Active	Active	inactive	inactive	inactive	Active	CC(C)COC(=O)C1=C(O)[C@H](C(=O)OCC(C)C)[C@@]2(O)[C@H](C(=O)OCC(C)C)[C@H](C)C[C@H]1[C@@H]2C(=O)O	Active	0.99	0.6	inactive	inactive	0.96	0.98	IC50 [9]: 95 µM; fold change (FC) [33]: 0.51; Activity [22]: Active; Activity [23]: inactive; Activity [24]: inactive
